Test results reported in publication PMC8039949, “A novel small-molecule PROTAC selectively promotes tau clearance to improve cognitive functions in Alzheimer-like models” (Theranostics, 2021).

Tests used:
tau = tau (Mus musculus, UniProt P10637); test: Intracerebroventricular infusion in wild-type mice, brain tau by Western blotting; type: in vivo; conditions: 4 m-old wild-type mice, intracerebroventricular 5 μL, 200 μM
Procedure: (§1) For brain surgery and stereotaxic cerebroventricular drug delivery, the mice were placed in a stereotaxic apparatus and anesthetized with 2% isoflurane (RWD Life Science, R510-22) through a nose cone (300-500 mL/min, RWD Life Science, China, R500). The scalp was incised along the midline between the ears after the mice were sterilized with iodophors and 75% (vol/vol) alcohol. The holes were drilled stereotaxically in the skull at a cerebroventricular location (posterior 0.22 mm, lateral 0.9 mm, and ventral 2.3 mm relative to bregma). Using a microinjection system (Shenzhen RWD Life Technology Co., Ltd; RWD 69100), C004019 (5 μL, 200 μM) was infused at a rate of 0.5 μL/min. The needle was kept in place for 10 min before withdrawal. After the skin was sutured, the mice were placed on a heater for analepsia. For subcutaneous injection, C004019 was diluted with 20% HP-β-CD and injected under the skin on the back neck to reach a final concentration of 3 mg/kg (low dose) or 15 mg/kg (high dose).
The cells or hippocampal/cortex tissues were homogenized for ~ 30 min on ice in buffer [50 mM Tris·HCl pH 7.4-7.5, 100 mM NaCl, 1% (vol/vol) Triton X-100, 5 mM EDTA, 1:100 PMSF, 1:1,000 protease inhibitor cocktail containing 4-(2-Aminoethyl)-benzenesulfonyl fluoride hydrochloride, aprotinin, bestatin, leupeptin, E-64, and pepstatin A stored at 4 °C], and then centrifuged at 12,000 × g at 4 °C for 20 min. The supernatant was collected and the protein levels were analyzed using bicinchoninic acid (BCA, KF016, Sigma-Aldrich) by following the manufacturer's instruction (served as soluble protein). The pellet was further incubated with 8% (wt/vol) SDS buffer at 4 °C and then treated by ultrasonic wave to reach a complete resuspension. The suspension was spun (18,000 × g, 4 °C for 20 min) and the supernatant collected (served as insoluble fraction). The supernatant of different faction was respectively mixed with loading buffer (3:1, vol/vol) containing 200 mM Tris-HCl, pH 6.8, 8% SDS, 40% glycerol, and boiled for 10 min. […] Immunoreactive bands were quantitatively analyzed by Image J2x software.

MAP2 = target: T1, MAP2 (Mus musculus, UniProt P20357); test: MAP2 protein level after intracerebroventricular infusion (specificity); type: in vivo; conditions: 4 m-old wild-type and 9.5 m-old 3xTg-AD mice; intracerebroventricular 5 μL, 200 μM
T1 construct: from tissue; host or cells: hippocampus and cortex of wild-type and 3xTg-AD mice
T1 sequence (P20357 whole entry, the tested form may be a part): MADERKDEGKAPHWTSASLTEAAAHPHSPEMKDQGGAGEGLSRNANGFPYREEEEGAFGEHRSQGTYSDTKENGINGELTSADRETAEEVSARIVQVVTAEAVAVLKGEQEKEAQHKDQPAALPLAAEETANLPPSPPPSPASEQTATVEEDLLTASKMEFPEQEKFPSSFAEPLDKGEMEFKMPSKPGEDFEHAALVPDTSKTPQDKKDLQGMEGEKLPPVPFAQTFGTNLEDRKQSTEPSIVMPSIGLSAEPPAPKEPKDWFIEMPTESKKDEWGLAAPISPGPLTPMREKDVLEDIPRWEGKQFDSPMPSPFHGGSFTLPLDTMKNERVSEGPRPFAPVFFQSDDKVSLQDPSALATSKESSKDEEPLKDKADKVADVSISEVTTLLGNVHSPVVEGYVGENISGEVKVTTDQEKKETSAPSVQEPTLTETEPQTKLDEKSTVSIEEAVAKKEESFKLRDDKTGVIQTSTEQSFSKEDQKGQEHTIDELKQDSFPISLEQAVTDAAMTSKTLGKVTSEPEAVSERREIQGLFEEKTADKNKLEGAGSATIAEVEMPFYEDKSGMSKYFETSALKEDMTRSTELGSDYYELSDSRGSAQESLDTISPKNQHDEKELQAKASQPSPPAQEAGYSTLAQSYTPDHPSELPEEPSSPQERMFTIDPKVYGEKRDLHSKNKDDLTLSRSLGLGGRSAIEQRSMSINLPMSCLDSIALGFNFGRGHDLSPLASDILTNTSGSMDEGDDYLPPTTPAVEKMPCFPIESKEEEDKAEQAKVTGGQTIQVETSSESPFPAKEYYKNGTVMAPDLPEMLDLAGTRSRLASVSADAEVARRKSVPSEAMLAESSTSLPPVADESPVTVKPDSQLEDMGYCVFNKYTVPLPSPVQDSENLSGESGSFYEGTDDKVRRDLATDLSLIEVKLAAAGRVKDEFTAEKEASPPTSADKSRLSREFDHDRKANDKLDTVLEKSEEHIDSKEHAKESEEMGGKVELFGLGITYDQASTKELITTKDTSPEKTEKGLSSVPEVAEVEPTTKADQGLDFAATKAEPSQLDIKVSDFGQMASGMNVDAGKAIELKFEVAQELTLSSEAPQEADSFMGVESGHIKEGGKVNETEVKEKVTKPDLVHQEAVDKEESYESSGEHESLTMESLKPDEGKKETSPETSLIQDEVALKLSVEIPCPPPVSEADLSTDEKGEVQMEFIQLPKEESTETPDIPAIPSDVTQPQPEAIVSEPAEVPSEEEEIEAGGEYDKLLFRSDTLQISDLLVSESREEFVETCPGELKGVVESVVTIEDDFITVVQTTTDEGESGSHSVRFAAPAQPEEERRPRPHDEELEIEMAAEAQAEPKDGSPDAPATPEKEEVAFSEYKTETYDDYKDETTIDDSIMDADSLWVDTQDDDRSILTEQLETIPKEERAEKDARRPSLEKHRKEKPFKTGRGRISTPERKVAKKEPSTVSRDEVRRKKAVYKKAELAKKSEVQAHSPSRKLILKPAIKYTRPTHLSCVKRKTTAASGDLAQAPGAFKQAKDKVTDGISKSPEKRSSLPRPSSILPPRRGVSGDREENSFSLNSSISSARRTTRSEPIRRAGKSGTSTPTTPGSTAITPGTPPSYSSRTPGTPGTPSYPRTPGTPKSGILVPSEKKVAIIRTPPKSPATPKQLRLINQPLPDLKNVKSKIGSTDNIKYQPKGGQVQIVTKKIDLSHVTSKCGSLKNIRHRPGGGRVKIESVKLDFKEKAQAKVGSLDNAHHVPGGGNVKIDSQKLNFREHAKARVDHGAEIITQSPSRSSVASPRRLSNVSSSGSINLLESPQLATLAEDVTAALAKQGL
Procedure: as §1, with “The needle was kept in place for 10 min before withdrawal. After the skin was sutured, the mice were placed on a heater for analepsia. For subcutaneous injection, C004019 was diluted with 20% HP-β-CD and injected under the skin on the back neck to reach a final concentration of 3 mg/kg (low dose) or 15 mg/kg (high dose).” left out
The cells or hippocampal/cortex tissues were homogenized for ~ 30 min on ice in buffer [50 mM Tris·HCl pH 7.4-7.5, 100 mM NaCl, 1% (vol/vol) Triton X-100, 5 mM EDTA, 1:100 PMSF, 1:1,000 protease inhibitor cocktail containing 4-(2-Aminoethyl)-benzenesulfonyl fluoride hydrochloride, aprotinin, bestatin, leupeptin, E-64, and pepstatin A stored at 4 °C], and then centrifuged at 12,000 × g at 4 °C for 20 min. The supernatant was collected and the protein levels were analyzed using bicinchoninic acid (BCA, KF016, Sigma-Aldrich) by following the manufacturer's instruction (served as soluble protein). […] Immunoreactive bands were quantitatively analyzed by Image J2x software.

amyloid-β plaque = test: Congo red staining of amyloid-β plaque in 3xTg-AD mice; type: in vivo, mouse; conditions: 9.5 m-old 3xTg-AD mice; subcutaneous 3 mg/kg every 6 days, 5 times
hTau transgenic mice = test: Multiple-doses subcutaneous administration in hTau transgenic mice, behavior and dendritic morphology; type: in vivo, mouse; conditions: 12 m-old hTau transgenic mice, subcutaneous 3 mg/kg once every 6 days, 5 times
Procedure: The Open field (OF) test was consisted of a 5 min session in a quadrate chamber (white opaque plastic). The chamber was divided into 16 square regions, a central field (center 4 square regions) and a periphery field. Each mouse was placed in the same position at the start of the test. Behaviors were recorded and analyzed by the video tracking system (Chengdu Taimeng Software Co., Ltd, China).
For novel object recognition (NOR) test, the mice were habituated to a quadrate chamber (white opaque plastic) for 5 min without objects 24 h prior to the test. The chamber was cleaned with 75% ethanol between each habituation period. The day after the mice re-entered the chamber from the same starting point and were given 10 min to familiarize themselves with the object A and object B. After each period the chamber and objects were cleaned with 75% ethanol. The next day after the familiarization period, object B was replaced with noval object C, and the mice were given 10 min to explore both objects. The exploring time in object A (TA) and C (TC) was recorded using the video tracking system. The discrimination index was calculated by (TC-TA)/(TA+TC).
The Elevated plus maze (EPM) test was performed as follows: mice were placed at the junction of the four arms of the maze (white opaque plastic), and started the test from facing an open arm. The chambers were cleaned with 75% ethanol before the next mouse was trained. The entries and duration time in each arm were recorded for 5 min by the video tracking system (Chengdu Taimeng Software Co., Ltd, China). An increase in open arm activity (duration and/or entries) reflects anti-anxiety behavior.
The Morris water maze (MWM) test was conducted to assess the spatial learning and memory. The maze was filled with water and divided into 4 quadrants with a platform placed in one quadrant. The mice were trained to find the hidden platform for 6 consecutive days, and underwent […] training trials (once per quadrant) per day from 14:00 to 20:00 pm. In each training trial, the mouse started from one of four quadrants facing the wall of the pool and the trial ended when the animal climbed on the platform. […] The spatial memory was tested 1 d after the last training by removed the platform. The longer a mouse stayed in the previous platform-located quadrant, the better it scored the spatial memory. A video camera, fixed to the ceiling 1.5 m from the water surface, was used to record the swimming path and the time for mice to find the platform (latency) or to pass through the previous platform-located quadrant each day. The camera was connected to a digital-tracking device attached to an IBM computer (Armonk, NY).
For fear conditioning (FC) test, the mice were placed into a square chamber with a grid floor. On the first day (day 1), each mouse was habituated to the chamber for 3 min, and then a foot shock (0.9 mA, 3 s) was delivered. Three sequential foot shocks at 3 min intervals were applied. Then the mice were returned to their home cages. On the next day (day 2), the mice were exposed to the same chamber without any stimulus for 3 min. The contextual conditioning was assessed by recording freezing behavior during the 3 min exposure. Freezing time during the 3 min was recorded for assessment of memory.
Golgi staining was performed by using a Rapid GolgiStain Kit (FD neurotechnologies, PK401) according to the manufacturer's instructions. Briefly, the animals were sacrificed and perfused for 5 min with PBS. All procedures were performed under dark condition. Brains were dissected out and immersed in impregnation solution (equal volumes of Solutions A and B, containing mercuric chloride, potassium dichromate, and potassium chromate, mixed for 24 h in advance), and stored at room temperature. Impregnation solution was replaced after 24 h. After 4 weeks, brains were transferred to Solution C and stored at 4 °C for 72 h, with the solution replaced after 24 h. […]

tau, sequence (P10637 114-430 isoform P10637-2 limits assumed): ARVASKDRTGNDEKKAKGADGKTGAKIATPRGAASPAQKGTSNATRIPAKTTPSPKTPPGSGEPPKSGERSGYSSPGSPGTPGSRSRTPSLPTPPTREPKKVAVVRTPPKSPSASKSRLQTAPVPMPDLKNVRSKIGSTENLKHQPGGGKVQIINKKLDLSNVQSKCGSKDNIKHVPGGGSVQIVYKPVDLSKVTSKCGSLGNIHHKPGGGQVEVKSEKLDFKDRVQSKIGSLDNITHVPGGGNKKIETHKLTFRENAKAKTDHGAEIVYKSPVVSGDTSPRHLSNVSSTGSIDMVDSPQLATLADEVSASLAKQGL

hippocampal tau level (tau; 48 h): still very significant | protein level of MAP2 (MAP2): did not change the level of MAP2 | duration time in the open arm, elevated plus maze (EPM) (hTau transgenic mice): no significant changes were detected | free movement in open field (OF) test (hTau transgenic mice): no significant changes were detected
SMILES: CC(=O)N1CCCN(c2nc(NCCc3cccs3)nc(N(C)CC(=O)NCCOCCOCCOCC(=O)N[C@H](C(=O)N3C[C@H](O)C[C@H]3C(=O)NCc3ccc(-c4scnc4C)cc3)C(C)(C)C)n2)CC1 [C004019]
hippocampal tau level (tau; 24 h): most remarkable hippocampal tau reduction | brain cortex tau level (tau; 24 h and 48 h): significant reduction of tau was only detected at 48 h but not 24 h | amyloid-β plaque (Congo red staining) (amyloid-β plaque): No significant effects on amyloid-β plaque | fear condition (FC) test, freezing index (hTau transgenic mice): improved freezing index | novel object recognition (NOR) test (hTau transgenic mice): increased time exploring new object | neurite arborization and spine density in hippocampal DG (hTau transgenic mice; Golgi-cox staining and Sholl analysis): significantly increased | Morris water maze (MWM) test, latency (hTau transgenic mice; learning trial and probe trial): decreased latency to find the platform
